# Measured values reported in paper PMC7486443, “Generation of Phenothiazine with Potent Anti-TLK1 Activity for Prostate Cancer Therapy” (iScience, 2020).
# What was measured:
# Test in all cases: biochemical
# Set-up in all cases: DiscoverX KINOMEscan scanMAX competition binding panel, single concentration, percent of control; remaining binding: dose or concentration left out as unconfirmed
# Details in all cases: KINOMEscan binding, percent of control; read-out: Table S4_SCANMAX REPORT - related to Fig. 1 / Percent Control
# ADCK3 = biological target: T1, ADCK3 (Homo sapiens, UniProt Q8NI60)
# T1 construct: gene COQ8A
# DDR1 = DDR1 (Homo sapiens, UniProt Q08345)
# EPHA6 = EPHA6 (Homo sapiens, UniProt Q9UF33)
# EPHB6 = EPHB6 (Homo sapiens, UniProt O15197)
# FRK = FRK (Homo sapiens, UniProt P42685)
# ICK = biological target: T2, ICK (Homo sapiens, UniProt Q9UPZ9)
# T2 construct: gene CILK1
# IRAK3 = IRAK3 (Homo sapiens, UniProt Q9Y616)
# JNK1 = biological target: T3, JNK1 (Homo sapiens, UniProt P45983)
# T3 construct: gene MAPK8
# KIT(L576P) = KIT(L576P) (Homo sapiens, UniProt P10721, L576P)
# LCK = LCK (Homo sapiens, UniProt P06239)
# LIMK2 = LIMK2 (Homo sapiens, UniProt P53671)
# MAPKAPK2 = MAPKAPK2 (Homo sapiens, UniProt P49137)
# MET = MET (Homo sapiens, UniProt P08581)
# MET(Y1235D) = MET(Y1235D) (Homo sapiens, UniProt P08581, Y1235D)
# MKK7 = biological target: T4, MKK7 (Homo sapiens, UniProt O14733)
# T4 construct: gene MAP2K7
# PLK3 = PLK3 (Homo sapiens, UniProt Q9H4B4)
# PRKD2 = PRKD2 (Homo sapiens, UniProt Q9BZL6)
# TRPM6 = TRPM6 (Homo sapiens, UniProt Q9BX84)
# [1] = biological target: T5, TYK2(JH1domain-catalytic) (Homo sapiens, UniProt P29597)
# T5 construct: JH1domain-catalytic
# T5 sequence (P29597 whole entry): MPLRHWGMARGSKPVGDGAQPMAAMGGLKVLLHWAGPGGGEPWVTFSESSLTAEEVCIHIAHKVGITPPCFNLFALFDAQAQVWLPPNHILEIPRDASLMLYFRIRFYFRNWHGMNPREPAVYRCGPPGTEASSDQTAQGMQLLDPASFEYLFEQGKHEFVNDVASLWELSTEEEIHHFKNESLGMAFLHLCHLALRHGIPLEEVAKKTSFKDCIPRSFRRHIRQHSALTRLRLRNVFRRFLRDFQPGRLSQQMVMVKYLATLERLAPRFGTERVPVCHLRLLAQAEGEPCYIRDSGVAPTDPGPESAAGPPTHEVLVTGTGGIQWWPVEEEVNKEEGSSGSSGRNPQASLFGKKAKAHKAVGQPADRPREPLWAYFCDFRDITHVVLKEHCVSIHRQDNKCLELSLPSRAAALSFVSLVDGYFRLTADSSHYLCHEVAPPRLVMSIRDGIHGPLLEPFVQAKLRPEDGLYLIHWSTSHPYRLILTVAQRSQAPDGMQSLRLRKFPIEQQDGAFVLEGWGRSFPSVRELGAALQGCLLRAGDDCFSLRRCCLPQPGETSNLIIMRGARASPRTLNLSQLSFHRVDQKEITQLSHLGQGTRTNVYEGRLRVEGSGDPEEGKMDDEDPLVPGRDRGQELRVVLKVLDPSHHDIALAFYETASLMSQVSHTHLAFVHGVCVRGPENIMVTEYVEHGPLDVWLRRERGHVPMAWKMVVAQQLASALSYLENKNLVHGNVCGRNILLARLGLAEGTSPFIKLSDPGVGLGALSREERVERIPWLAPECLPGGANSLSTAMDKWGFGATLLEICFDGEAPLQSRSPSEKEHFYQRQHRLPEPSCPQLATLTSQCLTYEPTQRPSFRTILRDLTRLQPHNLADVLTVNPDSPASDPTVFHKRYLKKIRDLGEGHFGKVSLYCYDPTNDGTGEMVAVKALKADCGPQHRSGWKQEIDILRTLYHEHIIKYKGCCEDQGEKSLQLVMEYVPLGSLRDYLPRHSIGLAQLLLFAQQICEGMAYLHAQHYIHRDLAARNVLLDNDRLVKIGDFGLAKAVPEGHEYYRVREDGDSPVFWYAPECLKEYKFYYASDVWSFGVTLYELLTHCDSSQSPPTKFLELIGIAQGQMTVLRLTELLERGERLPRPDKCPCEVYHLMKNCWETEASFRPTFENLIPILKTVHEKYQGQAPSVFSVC
# MAPKAPK2, sequence (P49137 whole entry): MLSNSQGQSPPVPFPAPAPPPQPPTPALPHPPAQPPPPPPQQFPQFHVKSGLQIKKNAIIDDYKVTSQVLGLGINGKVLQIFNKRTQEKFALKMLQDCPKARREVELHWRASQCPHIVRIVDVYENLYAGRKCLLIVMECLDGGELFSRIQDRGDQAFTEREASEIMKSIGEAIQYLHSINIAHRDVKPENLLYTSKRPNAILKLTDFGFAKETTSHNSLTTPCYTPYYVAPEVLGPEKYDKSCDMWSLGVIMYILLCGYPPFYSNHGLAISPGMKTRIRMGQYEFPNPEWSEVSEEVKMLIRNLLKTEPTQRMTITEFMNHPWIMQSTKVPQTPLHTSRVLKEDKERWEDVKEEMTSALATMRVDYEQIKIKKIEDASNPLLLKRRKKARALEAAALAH
# LIMK2, sequence (P53671 whole entry): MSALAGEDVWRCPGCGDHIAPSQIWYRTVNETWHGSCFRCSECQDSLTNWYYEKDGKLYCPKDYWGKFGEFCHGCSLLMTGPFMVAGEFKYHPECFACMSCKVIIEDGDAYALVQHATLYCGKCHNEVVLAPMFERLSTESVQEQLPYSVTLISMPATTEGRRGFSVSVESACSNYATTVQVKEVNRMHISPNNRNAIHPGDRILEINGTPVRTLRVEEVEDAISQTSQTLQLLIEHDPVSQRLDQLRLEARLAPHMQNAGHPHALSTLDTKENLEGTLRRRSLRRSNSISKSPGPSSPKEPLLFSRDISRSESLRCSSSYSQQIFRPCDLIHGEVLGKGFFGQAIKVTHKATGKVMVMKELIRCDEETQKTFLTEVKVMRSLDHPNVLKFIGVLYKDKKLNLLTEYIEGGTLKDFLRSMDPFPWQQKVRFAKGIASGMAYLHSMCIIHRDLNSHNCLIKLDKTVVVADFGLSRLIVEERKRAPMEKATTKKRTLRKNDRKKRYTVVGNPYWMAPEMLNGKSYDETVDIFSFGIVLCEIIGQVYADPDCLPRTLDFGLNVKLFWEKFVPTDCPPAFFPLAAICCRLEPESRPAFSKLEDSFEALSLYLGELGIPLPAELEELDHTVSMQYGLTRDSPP
# PRKD2, sequence (Q9BZL6 whole entry): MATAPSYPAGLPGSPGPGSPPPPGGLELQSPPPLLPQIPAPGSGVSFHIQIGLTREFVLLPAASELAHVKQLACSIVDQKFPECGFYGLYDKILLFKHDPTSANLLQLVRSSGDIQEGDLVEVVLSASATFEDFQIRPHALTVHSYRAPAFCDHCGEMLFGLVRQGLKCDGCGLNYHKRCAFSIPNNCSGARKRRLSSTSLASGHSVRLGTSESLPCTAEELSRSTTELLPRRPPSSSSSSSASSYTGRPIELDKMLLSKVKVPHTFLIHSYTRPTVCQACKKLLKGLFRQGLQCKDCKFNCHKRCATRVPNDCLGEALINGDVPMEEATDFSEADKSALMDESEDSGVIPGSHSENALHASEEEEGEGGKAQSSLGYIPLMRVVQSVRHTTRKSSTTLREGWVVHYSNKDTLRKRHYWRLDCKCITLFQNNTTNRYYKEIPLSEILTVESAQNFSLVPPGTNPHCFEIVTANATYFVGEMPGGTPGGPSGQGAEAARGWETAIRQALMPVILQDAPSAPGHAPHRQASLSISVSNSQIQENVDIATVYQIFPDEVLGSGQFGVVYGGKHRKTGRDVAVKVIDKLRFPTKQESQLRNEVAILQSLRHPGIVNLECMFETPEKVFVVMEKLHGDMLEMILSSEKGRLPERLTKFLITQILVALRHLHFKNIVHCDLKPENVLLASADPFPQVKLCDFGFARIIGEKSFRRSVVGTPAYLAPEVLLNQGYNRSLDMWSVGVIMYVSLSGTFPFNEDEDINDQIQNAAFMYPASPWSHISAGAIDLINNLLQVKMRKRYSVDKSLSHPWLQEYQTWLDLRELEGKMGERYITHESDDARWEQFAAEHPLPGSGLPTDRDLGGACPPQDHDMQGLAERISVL
# T1 sequence (Q8NI60 whole entry): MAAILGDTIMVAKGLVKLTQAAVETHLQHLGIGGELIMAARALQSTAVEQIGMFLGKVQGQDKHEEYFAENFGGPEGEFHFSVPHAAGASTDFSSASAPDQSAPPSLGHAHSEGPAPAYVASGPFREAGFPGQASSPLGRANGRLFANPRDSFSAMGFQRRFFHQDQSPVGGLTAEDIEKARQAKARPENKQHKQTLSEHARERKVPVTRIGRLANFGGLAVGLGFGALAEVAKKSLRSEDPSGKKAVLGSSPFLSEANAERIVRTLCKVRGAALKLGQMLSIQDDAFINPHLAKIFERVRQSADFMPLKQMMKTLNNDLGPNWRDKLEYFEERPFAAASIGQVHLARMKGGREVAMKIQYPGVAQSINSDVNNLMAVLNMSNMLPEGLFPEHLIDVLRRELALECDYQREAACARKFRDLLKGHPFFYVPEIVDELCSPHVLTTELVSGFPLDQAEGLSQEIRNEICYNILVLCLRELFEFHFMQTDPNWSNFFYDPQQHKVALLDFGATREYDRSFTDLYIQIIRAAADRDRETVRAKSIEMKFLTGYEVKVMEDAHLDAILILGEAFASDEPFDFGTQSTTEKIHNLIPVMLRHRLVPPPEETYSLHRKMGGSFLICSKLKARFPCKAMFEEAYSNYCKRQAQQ
# T3 sequence (P45983 whole entry): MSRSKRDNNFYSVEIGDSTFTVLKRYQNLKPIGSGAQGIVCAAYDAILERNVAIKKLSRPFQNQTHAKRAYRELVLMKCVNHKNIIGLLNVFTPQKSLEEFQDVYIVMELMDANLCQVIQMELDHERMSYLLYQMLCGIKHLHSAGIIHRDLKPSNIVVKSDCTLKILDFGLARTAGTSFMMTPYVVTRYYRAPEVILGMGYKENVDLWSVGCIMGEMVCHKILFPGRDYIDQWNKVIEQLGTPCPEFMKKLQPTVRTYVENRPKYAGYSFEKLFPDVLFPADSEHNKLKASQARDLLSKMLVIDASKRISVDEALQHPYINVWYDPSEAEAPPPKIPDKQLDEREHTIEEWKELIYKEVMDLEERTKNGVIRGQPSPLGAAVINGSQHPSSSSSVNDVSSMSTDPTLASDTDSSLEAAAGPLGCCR
# T4 sequence (O14733 whole entry): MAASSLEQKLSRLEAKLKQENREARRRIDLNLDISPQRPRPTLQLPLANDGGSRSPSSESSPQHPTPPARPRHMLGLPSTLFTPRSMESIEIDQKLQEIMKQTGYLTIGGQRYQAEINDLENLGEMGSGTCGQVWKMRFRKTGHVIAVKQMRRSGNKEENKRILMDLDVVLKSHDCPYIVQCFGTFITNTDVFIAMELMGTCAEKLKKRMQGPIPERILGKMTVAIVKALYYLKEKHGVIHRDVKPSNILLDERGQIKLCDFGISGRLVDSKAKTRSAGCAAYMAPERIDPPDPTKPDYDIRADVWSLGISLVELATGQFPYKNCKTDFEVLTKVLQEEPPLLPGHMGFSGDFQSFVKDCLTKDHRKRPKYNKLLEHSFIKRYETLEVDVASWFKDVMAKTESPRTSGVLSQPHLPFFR
compound,measurement,setting,value
c1ccc2c(c1)Sc1ccccc1N2CCN1CCOCC1 [J54],remaining binding,ADCK3,100%
same,remaining binding,DDR1,100%
same,remaining binding,EPHA6,100%
same,remaining binding,EPHB6,74%
same,remaining binding,FRK,100%
same,remaining binding,ICK,100%
same,remaining binding,IRAK3,90%
same,remaining binding,JNK1,82%
same,remaining binding,KIT(L576P),100%
same,remaining binding,LCK,100%
same,remaining binding,LIMK2,100%
same,remaining binding,MAPKAPK2,100%
same,remaining binding,MET,92%
same,remaining binding,MET(Y1235D),80%
same,remaining binding,MKK7,79%
same,remaining binding,PLK3,100%
same,remaining binding,PRKD2,95%
same,remaining binding,TRPM6,100%
same,remaining binding,[1],100%
